{"source": "ChEMBL document CHEMBL1201862", "about": "“PubChem BioAssay data set” (2004)", "key": {"[1]": {"biological_target": "T1, Corticotropin-releasing factor receptor 2/Corticotropin-releasing factor-binding protein (Homo sapiens, UniProt P24387+Q13324)", "T1 sequence (Q13324 whole entry)": "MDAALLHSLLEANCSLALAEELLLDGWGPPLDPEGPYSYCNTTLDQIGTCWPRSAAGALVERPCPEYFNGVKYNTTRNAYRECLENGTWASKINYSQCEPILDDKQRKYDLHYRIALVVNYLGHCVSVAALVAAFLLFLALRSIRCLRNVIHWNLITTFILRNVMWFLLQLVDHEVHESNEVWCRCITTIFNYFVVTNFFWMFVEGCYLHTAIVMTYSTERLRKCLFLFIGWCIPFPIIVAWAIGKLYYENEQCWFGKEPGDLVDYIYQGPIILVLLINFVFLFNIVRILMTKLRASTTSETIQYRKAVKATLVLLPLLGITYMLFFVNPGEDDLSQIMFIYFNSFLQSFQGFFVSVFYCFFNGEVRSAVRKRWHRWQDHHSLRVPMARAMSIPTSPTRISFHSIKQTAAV", "T1 sequence (P24387 whole entry)": "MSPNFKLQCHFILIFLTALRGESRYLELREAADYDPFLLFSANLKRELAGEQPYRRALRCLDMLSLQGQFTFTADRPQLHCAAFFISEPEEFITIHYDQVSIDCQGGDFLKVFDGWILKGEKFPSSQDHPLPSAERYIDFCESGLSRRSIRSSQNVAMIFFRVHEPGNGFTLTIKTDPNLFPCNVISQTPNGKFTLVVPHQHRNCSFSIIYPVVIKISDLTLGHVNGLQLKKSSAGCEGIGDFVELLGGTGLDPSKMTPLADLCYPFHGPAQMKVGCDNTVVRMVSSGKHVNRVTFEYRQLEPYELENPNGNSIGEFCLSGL", "assay": "Dose Response confirmation of uHTS hits for small molecule antagonists of the CRF-binding protein and CRF-R2 receptor complex.", "assay_type": "functional", "conditions": "read-out: IC50_Mean"}, "[2]": {"biological_target": "T1, Corticotropin-releasing factor receptor 2/Corticotropin-releasing factor-binding protein", "assay": "activators of CRF receptor 2 with binding protein – uHTS hits, confirmation (AID 602473)", "assay_type": "functional", "conditions": "read-out: EC50_Mean"}, "[3]": {"assay": "blockers of CRF-binding protein–CRF-R2 complex – cell-based, uHTS hits, 384-well, dose response (AID 651639)", "assay_type": "functional, Homo sapiens", "conditions": "read-out: IC50_Mean"}, "[4]": {"assay": "Trypanosoma cruzi growth suppression in host cells – NIH3T3 host cells, beta-gal luminescence, confirmation (AID 2044);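 further: intracellular parasites grown in NIH/3T3 mouse fibroblasts as host cells; luminescent beta-galactosidase reporter signal from transgenic T. cruzi replicating inside host cells; inhibitors lower the luminescence signal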", "assay_type": "functional, cell-based"}, "[5]": {"assay": "NIH3T3 cell viability loss – ATP luminescence, mouse fibroblasts, counter-screen, dose response (AID 2010);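 further: cells exposed to compound for about 90 hours before reading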", "assay_type": "functional, cell-based"}, "[6]": {"biological_target": "T2, Apoptotic protease-activating factor 1 (Homo sapiens, UniProt O14727)", "T2 sequence (O14727 whole entry)": "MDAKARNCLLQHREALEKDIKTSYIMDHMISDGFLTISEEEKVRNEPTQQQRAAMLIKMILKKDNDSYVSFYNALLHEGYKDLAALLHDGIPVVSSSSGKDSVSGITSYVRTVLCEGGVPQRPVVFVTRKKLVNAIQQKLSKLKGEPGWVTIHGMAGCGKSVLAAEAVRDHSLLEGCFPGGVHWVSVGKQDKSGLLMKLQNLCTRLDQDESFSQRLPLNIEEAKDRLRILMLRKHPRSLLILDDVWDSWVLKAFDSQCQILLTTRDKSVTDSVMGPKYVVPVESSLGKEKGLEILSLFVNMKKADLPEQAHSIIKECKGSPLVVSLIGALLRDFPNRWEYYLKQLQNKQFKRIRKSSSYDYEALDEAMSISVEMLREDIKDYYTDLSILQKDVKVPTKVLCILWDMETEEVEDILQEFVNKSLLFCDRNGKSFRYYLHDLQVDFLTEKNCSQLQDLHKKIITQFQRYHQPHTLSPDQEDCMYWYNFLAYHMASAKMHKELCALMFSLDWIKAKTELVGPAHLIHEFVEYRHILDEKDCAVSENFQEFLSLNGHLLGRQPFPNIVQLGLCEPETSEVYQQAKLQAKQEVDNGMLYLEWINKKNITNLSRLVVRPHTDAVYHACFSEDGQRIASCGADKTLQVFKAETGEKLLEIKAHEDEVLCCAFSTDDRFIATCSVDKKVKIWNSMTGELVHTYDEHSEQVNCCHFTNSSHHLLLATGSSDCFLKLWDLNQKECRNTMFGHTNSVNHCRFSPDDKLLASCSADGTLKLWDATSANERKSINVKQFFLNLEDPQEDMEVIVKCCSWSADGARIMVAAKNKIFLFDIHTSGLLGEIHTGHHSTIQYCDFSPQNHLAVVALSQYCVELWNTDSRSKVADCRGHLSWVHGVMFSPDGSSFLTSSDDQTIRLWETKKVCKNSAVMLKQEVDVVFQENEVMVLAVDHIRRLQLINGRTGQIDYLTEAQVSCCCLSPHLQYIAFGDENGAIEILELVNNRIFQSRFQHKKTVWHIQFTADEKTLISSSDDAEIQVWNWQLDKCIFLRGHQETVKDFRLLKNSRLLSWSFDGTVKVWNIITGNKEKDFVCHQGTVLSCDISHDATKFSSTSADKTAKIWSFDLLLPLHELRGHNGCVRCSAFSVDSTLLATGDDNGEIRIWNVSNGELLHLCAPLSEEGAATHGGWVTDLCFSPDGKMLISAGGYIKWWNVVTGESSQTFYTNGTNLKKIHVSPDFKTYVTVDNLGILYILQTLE", "assay_type": "functional"}, "[7]": {"biological_target": "T3, Endoribonuclease toxin MazF (Escherichia coli K-12, UniProt P0AE70)", "T3 sequence (P0AE70 whole entry)": "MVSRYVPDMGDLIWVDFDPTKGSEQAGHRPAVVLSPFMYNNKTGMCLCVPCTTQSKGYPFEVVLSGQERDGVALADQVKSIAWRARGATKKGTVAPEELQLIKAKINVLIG", "assay": "activation of MazEF endoribonuclease cleavage – biochemical, fluorescence, single-stranded RNA substrate, uHTS hits, dose response (AID 588481)", "assay_type": "functional"}, "[8]": {"biological_target": "T3, Endoribonuclease toxin MazF", "assay": "substrate-only fluorescence increase artefacts – biochemical, single-stranded RNase substrate, counter-screen for MazEF activator project, dose response (AID 588502)", "assay_type": "functional"}, "BJ [9]": {"system": "BJ", "assay": "BJ-TERT fibroblast viability loss – cell-based, RAS-independent, luminescence, dose response (AID 1933)", "assay_type": "functional", "conditions": "Homo sapiens"}, "BJ [10]": {"system": "BJ", "assay": "cells", "assay_type": "functional, cell-based", "conditions": "Homo sapiens"}, "BJ [11]": {"system": "BJ", "assay": "BJ-TERT-LT-ST fibroblast viability loss – cell-based, RAS-independent, luminescence, dose response (AID 1935);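 further: BJ fibroblasts immortalized with TERT plus LT and ST oncogenes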", "assay_type": "functional", "conditions": "Homo sapiens"}, "[12]": {"assay": "DRD fibroblast viability loss – cell-based, non-viral oncogenic, luminescence, dose response (AID 1934)", "assay_type": "functional", "conditions": "Homo sapiens"}, "[13]": {"biological_target": "Voltage-dependent T-type calcium channel subunit alpha-1H (Homo sapiens, UniProt O95180)", "sequence (O95180 whole entry)": "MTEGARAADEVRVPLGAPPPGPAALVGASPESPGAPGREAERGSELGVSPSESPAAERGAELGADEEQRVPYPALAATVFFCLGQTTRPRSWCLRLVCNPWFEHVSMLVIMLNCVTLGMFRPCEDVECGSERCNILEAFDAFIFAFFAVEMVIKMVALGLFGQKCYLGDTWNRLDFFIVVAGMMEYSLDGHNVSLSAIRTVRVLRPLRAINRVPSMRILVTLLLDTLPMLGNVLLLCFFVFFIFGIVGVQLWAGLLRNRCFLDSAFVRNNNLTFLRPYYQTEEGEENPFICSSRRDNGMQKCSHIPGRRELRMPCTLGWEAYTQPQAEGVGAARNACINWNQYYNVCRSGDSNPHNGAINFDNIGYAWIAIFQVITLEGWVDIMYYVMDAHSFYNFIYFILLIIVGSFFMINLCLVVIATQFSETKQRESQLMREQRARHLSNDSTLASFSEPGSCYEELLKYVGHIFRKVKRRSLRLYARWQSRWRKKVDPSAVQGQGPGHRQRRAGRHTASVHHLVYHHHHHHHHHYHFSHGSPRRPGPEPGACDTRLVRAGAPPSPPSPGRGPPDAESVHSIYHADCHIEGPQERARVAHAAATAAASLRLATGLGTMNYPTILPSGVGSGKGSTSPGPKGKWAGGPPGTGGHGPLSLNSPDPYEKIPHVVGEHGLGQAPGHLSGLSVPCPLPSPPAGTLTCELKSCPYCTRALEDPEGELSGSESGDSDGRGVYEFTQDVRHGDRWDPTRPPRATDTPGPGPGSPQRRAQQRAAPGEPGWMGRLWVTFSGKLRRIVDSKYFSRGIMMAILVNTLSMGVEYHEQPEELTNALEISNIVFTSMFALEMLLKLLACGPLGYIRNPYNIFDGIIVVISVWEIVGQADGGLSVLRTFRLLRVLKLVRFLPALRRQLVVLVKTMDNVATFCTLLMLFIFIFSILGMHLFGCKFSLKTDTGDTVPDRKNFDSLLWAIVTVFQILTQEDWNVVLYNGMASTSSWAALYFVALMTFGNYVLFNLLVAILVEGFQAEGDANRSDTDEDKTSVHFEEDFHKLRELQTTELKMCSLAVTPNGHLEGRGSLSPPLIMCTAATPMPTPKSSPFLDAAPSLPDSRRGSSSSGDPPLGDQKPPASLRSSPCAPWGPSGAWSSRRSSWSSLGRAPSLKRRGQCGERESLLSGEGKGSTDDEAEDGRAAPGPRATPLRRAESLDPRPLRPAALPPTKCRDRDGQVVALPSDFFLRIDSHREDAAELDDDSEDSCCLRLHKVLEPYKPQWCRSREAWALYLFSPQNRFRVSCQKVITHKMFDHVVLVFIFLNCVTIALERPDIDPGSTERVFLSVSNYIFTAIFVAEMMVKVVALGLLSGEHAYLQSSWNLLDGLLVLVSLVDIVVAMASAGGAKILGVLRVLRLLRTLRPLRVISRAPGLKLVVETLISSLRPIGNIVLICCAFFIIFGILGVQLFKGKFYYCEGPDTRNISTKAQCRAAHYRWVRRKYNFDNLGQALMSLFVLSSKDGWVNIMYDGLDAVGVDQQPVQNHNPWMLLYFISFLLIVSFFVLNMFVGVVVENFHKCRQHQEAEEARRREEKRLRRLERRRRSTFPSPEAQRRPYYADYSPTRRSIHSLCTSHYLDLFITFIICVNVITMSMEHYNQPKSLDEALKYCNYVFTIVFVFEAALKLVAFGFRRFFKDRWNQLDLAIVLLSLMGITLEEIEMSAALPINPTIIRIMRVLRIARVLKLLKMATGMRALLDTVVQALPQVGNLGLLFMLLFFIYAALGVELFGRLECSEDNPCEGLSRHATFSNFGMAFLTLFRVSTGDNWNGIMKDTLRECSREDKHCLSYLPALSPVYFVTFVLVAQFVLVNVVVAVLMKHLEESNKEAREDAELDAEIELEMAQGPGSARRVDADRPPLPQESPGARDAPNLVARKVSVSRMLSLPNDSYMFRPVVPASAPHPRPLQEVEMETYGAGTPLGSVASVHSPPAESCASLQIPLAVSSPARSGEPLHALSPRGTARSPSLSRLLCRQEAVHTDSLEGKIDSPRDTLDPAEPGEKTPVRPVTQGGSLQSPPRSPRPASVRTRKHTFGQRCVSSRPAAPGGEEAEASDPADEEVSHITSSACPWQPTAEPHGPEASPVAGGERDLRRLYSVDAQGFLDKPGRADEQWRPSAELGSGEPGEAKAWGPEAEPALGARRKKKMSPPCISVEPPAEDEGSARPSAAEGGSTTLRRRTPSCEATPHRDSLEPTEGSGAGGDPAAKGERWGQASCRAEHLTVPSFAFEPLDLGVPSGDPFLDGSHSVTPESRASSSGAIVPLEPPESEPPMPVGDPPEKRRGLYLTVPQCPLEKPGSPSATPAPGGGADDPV", "assay_type": "functional"}, "[14]": {"biological_target": "Heat shock protein HSP 90-alpha (Homo sapiens, UniProt P07900)", "assay_type": "functional, organism-based"}, "Large T antigen": {"biological_target": "Large T antigen (Simian virus 40, UniProt P03070)", "sequence (P03070 whole entry)": "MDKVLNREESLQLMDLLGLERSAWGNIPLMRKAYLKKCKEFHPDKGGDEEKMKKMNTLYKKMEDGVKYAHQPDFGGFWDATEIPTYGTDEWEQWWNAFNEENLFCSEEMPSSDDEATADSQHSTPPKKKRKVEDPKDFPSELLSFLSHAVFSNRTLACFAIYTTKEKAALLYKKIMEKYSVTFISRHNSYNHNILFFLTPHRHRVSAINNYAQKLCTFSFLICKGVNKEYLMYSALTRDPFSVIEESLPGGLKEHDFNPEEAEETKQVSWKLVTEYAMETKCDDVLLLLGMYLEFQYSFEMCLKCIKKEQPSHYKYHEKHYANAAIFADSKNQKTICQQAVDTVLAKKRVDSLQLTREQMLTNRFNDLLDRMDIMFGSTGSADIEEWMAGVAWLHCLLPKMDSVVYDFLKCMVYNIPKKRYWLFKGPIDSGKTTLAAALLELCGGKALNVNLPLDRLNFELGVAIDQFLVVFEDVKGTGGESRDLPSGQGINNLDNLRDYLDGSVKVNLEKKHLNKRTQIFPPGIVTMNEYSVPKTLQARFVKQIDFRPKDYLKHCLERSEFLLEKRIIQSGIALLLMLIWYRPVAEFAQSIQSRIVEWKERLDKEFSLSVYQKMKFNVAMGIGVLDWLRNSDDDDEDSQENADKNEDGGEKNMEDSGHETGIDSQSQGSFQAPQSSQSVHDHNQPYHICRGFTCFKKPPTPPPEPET", "assay_type": "functional, Betapolyomavirus macacae"}, "cells [15]": {"assay": "cells", "assay_type": "functional, cell-based"}, "cells [16]": {"assay": "cells", "assay_type": "functional, cell-based", "remark": "listed apart in the source"}}, "note": "The source made the active and inactive calls.", "data": [{"compound": "CCOC(=O)c1c(NC(=O)c2c(Br)cnn2C)c(C#N)nn1-c1ccccc1", "values": [{"measurement": "IC50", "setting": "[1]", "result": "43.9 µM (active)"}, {"measurement": "EC50", "setting": "[2]", "result": "> 53 µM (inactive)"}, {"measurement": "IC50", "setting": "[3]", "result": "18.4 µM (active)"}]}, {"compound": "COc1ccc2c(c1)Cc1sc(NC(=O)c3cccs3)nc1-2", "values": [{"measurement": "EC50", "setting": "[4]", "result": "2.01 µM (active)"}, {"measurement": "EC50", "setting": "[5]", "result": "> 60 µM (not active)"}, {"measurement": "IC50", "setting": "[6]", "result": "28.7 µM (active)"}]}, {"compound": "COC(=O)CSc1cc([N+](=O)[O-])cc2c1c(C1OCCO1)nn2-c1ccccc1", "values": [{"measurement": "EC50", "setting": "[7]", "result": "> 99 µM (inactive)"}, {"measurement": "EC50", "setting": "[8]", "result": "> 99 µM (inactive)"}]}, {"compound": "CCCCN1C(=O)/C(=C/C=C/C=C/Nc2ccccc2)SC1=S", "values": [{"measurement": "EC50", "setting": "BJ [9]", "result": "31.6 µM (active)"}, {"measurement": "EC50", "setting": "BJ [10]", "result": "24.6 µM (active)"}, {"measurement": "EC50", "setting": "BJ [11]", "result": "> 150 µM (not active)"}, {"measurement": "EC50", "setting": "[12]", "result": "19.8 µM (active)"}]}, {"compound": "CN(CC(=O)Nc1ccc(Cl)c(C(F)(F)F)c1)C(=O)CC1Sc2ccccc2NC1=O", "note": "(stereo unspecified)", "values": [{"measurement": "IC50", "setting": "[6]", "result": "33.6 µM (active)"}]}, {"compound": "Cc1ccc2c(CC(=O)NCC3COc4ccccc4O3)coc2c1", "note": "(stereo unspecified)", "values": [{"measurement": "EC50", "setting": "[13]", "result": "0.986 µM (active)"}]}, {"compound": "CN1CCN(c2ccc([N+](=O)[O-])cc2C(=O)c2ccccc2)CC1", "values": [{"measurement": "EC50", "setting": "BJ [9]", "result": "39.6 µM (active)"}, {"measurement": "EC50", "setting": "BJ [10]", "result": "> 150 µM (not active)"}, {"measurement": "EC50", "setting": "BJ [11]", "result": "> 150 µM (not active)"}, {"measurement": "EC50", "setting": "[12]", "result": "> 150 µM (not active)"}]}, {"compound": "O=C(CSCC(=O)N1CCCCC1)Nc1nc(-c2cccs2)cs1", "values": [{"measurement": "EC50", "setting": "[13]", "result": "0.595 µM (active)"}]}, {"compound": "CCOC(=O)c1ccc(N2C(=O)CC(N3CCC(O)(c4ccc(Cl)cc4)CC3)C2=O)cc1", "note": "(stereo unspecified)", "values": [{"measurement": "AC50", "setting": "[14]", "result": "2.97 µM (active)"}]}, {"compound": "CN(C)c1ccc(NC(=O)CSc2nnc(-c3ccco3)c(-c3ccco3)n2)cc1", "values": [{"measurement": "IC50", "setting": "Large T antigen", "result": "6.98 µM (active)"}]}, {"compound": "O=C(COc1ccccc1)N(Cc1cccc(F)c1)C1CCS(=O)(=O)C1", "note": "(stereo unspecified)", "values": [{"measurement": "EC50", "setting": "cells [15]", "result": "> 350 µM (not active)"}, {"measurement": "EC50", "setting": "cells [16]", "result": "> 350 µM (not active)"}]}, {"compound": "Cc1cc(C)n2nc(C(=O)N/N=C/c3ccc(O)cc3)nc2n1", "values": [{"measurement": "IC50", "setting": "Large T antigen", "result": "43.9 µM (active)"}]}, {"compound": "COc1ccc(Br)c(C(=O)OCc2cc(=O)oc3cc(C)ccc23)c1", "values": [{"measurement": "EC50", "setting": "[7]", "result": "> 99 µM (inactive)"}, {"measurement": "EC50", "setting": "[8]", "result": "> 99 µM (inactive)"}]}]}
